Results on one compound are retold here after patent US20260209203A1, “Heterocyclic Compounds as Modulators of S1P5” (Celgene Corporation, priority 2022, published 2026).

This assay deals with S1P5 (Homo sapiens, UniProt Q9H228). The assay is described as follows: [35S]-GTPγS functional binding assay on CHO-S1P5 membranes. The format is biochemical. The following applies: membranes of CHO cells expressing recombinant S1P5; measure of S1P5 agonism. The method, then:
CHO cells expressing recombinant S1P5 receptors were cultured in 500 cm^2 culture trays and, once confluent, rinsed and detached with cell-lifting buffer (10 mM HEPES, 154 mM NaCl, 6.85 mM EDTA, pH 7.4). Cells were then pelleted by centrifugation, resuspended, and homogenized in membrane preparation buffer (10 mM HEPES and 10 mM EDTA, pH 7.4) using a Polytron PT 1200E homogenizer (Kinematica, Luzern, Switzerland). Cellular proteins were pelleted by centrifugation at 48,000×g at 4° C. for 30 minutes. The resulting supernatant was discarded, and the pellet was re-suspended again in membrane preparation buffer, homogenized for a second time, and then centrifuged again as described above. The final cellular protein pellet was suspended in ice cold resuspension buffer (10 mM HEPES and 0.1 mM EDTA, pH 7.4), divided into aliquots, and stored at −80° C. until use.
Functional binding assays for [^35S]-GTPγS were performed in 96-well non-binding surface plates with a final volume of 200 μL. The test compounds were serially diluted in DMSO and added to assay plates using a Tecan D300E digital printer with a total volume of 0.4 μL. The control sphingosine-1-phosphate (S1P) was prepared separately by preparing a 400 μM stock solution from a 100 nmol pellet of SIP in 10 mM Na2CO3 with 2% β-cyclodextrin. The serial dilution of S1P was done using complete assay buffer (20 mM HEPES, 10 mM MgCl2, 100 mM NaCl, 1 mM EDTA, 0.1% fatty acid free bovine serum albumin (BSA), and 30 μg/mL saponin, pH 7.4) and transferred to wells already containing 0.4 μL DMSO. All the wells were then loaded to a total volume of 40 μL of complete assay buffer, except the non-specific binding (NSB) wells. For NSB wells, 40 μL/well of 50 μM GTPγS (Sigma Aldrich, cat #G8634, St. Louis, MO) was added to wells containing 0.4 μL of DMSO. The assay was started by the addition of 120 μL/well of CHO—S1P receptor membrane solution containing 40 μg/mL of membrane protein, 16.67 μM guanosine diphosphate (GDP; Sigma Aldrich, cat #G7127, St. Louis, MO), and 2.5 mg/mL of WGA PVT SPA beads in complete buffer. Assay plates were then sealed and incubated at room temperature with gentle agitation for 30 minutes. Next, 40 μL/well of 1 nM of [^35S]-GTPγS (PerkinElmer, cat #NEG030X250UC, Waltham, MA) in basic assay buffer (20 mM HEPES, 10 mM MgCl2, 100 mM NaCl, and 1 mM EDTA, pH7.4) was added to the assay plates to yield a final concentration of 200 pM and the plates were further incubated for 40 minutes at room temperature with gentle agitation. The assay was terminated by centrifugation of the plates at 1000 rpm for 3 minutes using an Eppendorf 5810R centrifuge (Eppendorf, Hamburg, Germany) and G protein bound radioactivity was quantitated using a MicroBeta2 microplate scintillation counter (PerkinElmer, Waltham, MA). As G protein bound radioactivity directly correlates to receptor activation and coupling to the G protein, this assay is a measure of S1P5 agonism.
On the technique in general: Binding of GTPγS marks nucleotide exchange on a G protein.

Chain of S1P5 (Q9H228 whole entry, species assumed): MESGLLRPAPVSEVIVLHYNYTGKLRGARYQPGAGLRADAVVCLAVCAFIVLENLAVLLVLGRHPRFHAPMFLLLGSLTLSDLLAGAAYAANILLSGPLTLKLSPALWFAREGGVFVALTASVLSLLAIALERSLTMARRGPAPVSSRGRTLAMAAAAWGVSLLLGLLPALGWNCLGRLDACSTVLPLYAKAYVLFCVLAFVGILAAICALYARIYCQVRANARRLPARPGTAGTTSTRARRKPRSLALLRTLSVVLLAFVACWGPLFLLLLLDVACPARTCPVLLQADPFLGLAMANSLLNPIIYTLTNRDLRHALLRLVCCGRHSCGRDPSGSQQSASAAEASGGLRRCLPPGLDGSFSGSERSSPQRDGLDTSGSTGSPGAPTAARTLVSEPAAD

For the compound `Cc1cc(C2CN(c3c(Cl)cccc3Cl)C2)cc(C)c1CN1CCC(C(=O)NCC2CCCCC2)CC1` [Compound 18, N-(cyclohexylmethyl)-1-(4-(1-(2,6-dichlorophenyl)-azetidin-3-yl)-2,6-dimethyl-benzyl)piperidine-4-carbox-amide], the EC50 lay in the range of 1 to 10 µM.

As a reminder, the EC50 is the concentration giving half of the maximal effect.
